Laboratory results as given in US10758596B2, “Compositions and methods to prevent and treat biofilms” (ZIOLASE, LLC, priority 2011, dated 2020).
In brackets after ≈: the same amount, converted by molar mass. Like-named read-outs stand apart in the source and are kept apart here.

Legend:
Assay type in all cases: cell-based
[1] = system: P. aeruginosa PAO1; assay: Biofilm mass formation (Crystal Violet staining), P. aeruginosa PAO1 biofilm; conditions: antibiotic alone 1/4 MIC added to 24 hour preformed biofilm
[2] = system: P. aeruginosa PAO1; assay: Bacterial cell viability (Resazurin assay), P. aeruginosa PAO1 biofilm
Description: (§1) Various parameters that were evaluated in each part of the analysis include: 1) Biofilm mass formation (% inhibition—by Crystal Violet staining method); 2) Bacterial cell viability (% inhibition—by Resazurin assay); and 3) Bacterial cell growth (by Colony Counting—CFU/ml plating).
The “U” corresponds to the International Units for the enzyme in each testing well. This dose was further used in subsequent experiments. […] In an old stage (72 hour of growth), the biofilm formation was still inhibited by about 50.0%. […]
(§2) The experimental design for the second strain on the preformed biofilm included: • Strain: P. aeruginosa PAO1 • Temperature: 35±2° C. • Incubation Conditions: Static • Time Points: Preformed biofilm for 24 hours, 24 hours of further growth • Treatment: (added to well containing a suspension of P. aeruginosa PAO1 ˜10^7 CFU/ml) • Solvent 1: 50% glycerol containing 1% Triton™ X-100 and 25 mM potassium phosphate, pH 6.5 • Solvent 2: 25 mM potassium phosphate, pH 6.5 • SIGMA Trehalase: 0.092 UI • Dialyzed Trehalase: 0.092 UI • Parameters Assessed: • Biofilm mass formation (staining with crystal violet 0.06%) • Cells viability (incubation with resazurin) • Cell growth by colony counting (CFU/mL)

[3] = system: S. aureus ATCC 25923; assay: Bacterial cell viability (Resazurin assay), S. aureus ATCC 25923
Description: as §1
(§3) There now follows greater details about tests that show the effect of Trehalase in gram-positive bacteria (MRSA and MSSA S. aureus). […] It inhibited viability of bacterial cells in the biofilm (about 84%, about 81%, and about 63% correspondingly by Resazurin assay), and reduced the bacterial cell growth in the 24 hour biofilm (about 1.5 log by CFU/ml compared to the Control).
as §2, with “first” for “second”, “early” for “preformed”, “S. aureus ATCC25923” for “P. aeruginosa PAO1”, “Points:” for “Points: Preformed biofilm for 24 hours,”, “hours” for “hours of further growth”
as §2, with “first” for “second”, “S. aureus ATCC25923” for “P. aeruginosa PAO1”, “(CFU/mL) […]” for “(CFU/mL)”

[4] = system: S. aureus ATCC 25923; assay: MIC by CLSI guidelines, S. aureus ATCC 25923
Description: There is strong reproducibility of the data generated with S. aureus ATCC25923 (similar activity among different experiments).

[5] = system: S. aureus ATCC 25923; assay: Biofilm mass formation (Crystal Violet staining), S. aureus ATCC 25923 biofilm; conditions: antibiotic alone 1/4 MIC; 24 hour grown biofilm
Description: as §1, §3
as §2, with “first” for “second”, “early” for “preformed”, “S. aureus ATCC25923” for “P. aeruginosa PAO1”, “Points:” for “Points: Preformed biofilm for 24 hours,”, “hours” for “hours of further growth”, “(CFU/mL) […]” for “(CFU/mL)”

[6] = system: S. aureus ATCC 25923; assay: Bacterial cell growth by colony counting (CFU/mL), S. aureus ATCC 25923 biofilm and planktonic cells; conditions: antibiotic alone 1/4 MIC; 24 hour grown biofilm
Description: as §1, §3
as §2, with “first” for “second”, “early” for “preformed”, “S. aureus ATCC25923” for “P. aeruginosa PAO1”, “Points:” for “Points: Preformed biofilm for 24 hours,”, “hours” for “hours of further growth”, “(CFU/mL) […]” for “(CFU/mL)”

[7] = system: S. aureus ATCC33591; assay: Biofilm mass formation, S. aureus ATCC33591 24 hour grown biofilm; conditions: Trehalase 0.092 UI/well, antibiotic 1/4 MIC; early (24 hour grown) biofilm
Description: as §1

[8] = system: S. aureus ATCC33591; assay: MIC, S. aureus ATCC33591
Description: Neither Gentamicin (GENT), nor Vancomycin (VAN) in sub-MICc doses (¼/MIC) triggered biofilm induction response.

[9] = system: S. aureus 3-Belgium; assay: MIC, S. aureus 3-Belgium
[10] = system: S. aureus strains (MSSA Oxford, MSSA ATCC 35556, MRSA ATCC 25923); assay: MIC in broth (CLSI) in the presence and absence of Trehalase, selected S. aureus strains; conditions: Trehalase 0.092 UI, 24 hours
Description: There was testing of Trehalase on Clinical Isolates (S. aureus strains: Oxford, ATCC35556, and ATCC 25923 as the reference strain) at a time-point: 24 hours of biofilm growth.
The MIC determination with selected S. aureus strains proceeded as a first step. The materials and methods included:
S. aureus strains: Oxford; ATCC35556 and ATCC25923 (as reference strain)
In vitro assay: MIC in broth (according to CLSI guidelines)
Antibiotic concentration: two-fold series dilution from 16 to 0.0078 μg/mL
Incubation: T 37° C.; static condition

[11] = GENT/VAN experiment, Trehalase 0.092 UI/well, antibiotic 1/4 MIC, 24 hour grown biofilm

| Compound | increase of biofilm mass formation (BIR) compared to Control level [1] | increased biofilm mass (biofilm induction response, BIR) compared to Negative Control [5] | inhibition of biofilm cell viability (Resazurin assay) [3, 11] | effect on cell growth [6] | inhibition / reduction of biofilm mass formation compared to Control [7] | MIC [4] | also measured |
| --- | --- | --- | --- | --- | --- | --- | --- |
| CC(C)(O/N=C(\C(=O)N[C@@H]1C(=O)N2C(C(=O)[O-])=C(C[n+]3ccccc3)CS[C@H]12)c1csc(N)n1)C(=O)O [Ceftazidime] | about 1.6 |  |  |  |  |  | inhibition of cell viability (Resazurin assay) ([2]; Pseudomonas aeruginosa, 48 h): 25-50%; inhibition of biofilm cell viability (Resazurin assay) ([3]; Staphylococcus aureus, 24 h): about 13%; MIC ([4]; Staphylococcus aureus, ATCC25923, read-out: MIC): 8 µg/mL (≈ 14.6 µM) |
| NC[C@H]1O[C@H](O[C@H]2[C@H](O)[C@@H](O[C@H]3O[C@H](CO)[C@@H](O)[C@H](N)[C@H]3O)[C@H](N)C[C@@H]2N)[C@H](N)C[C@@H]1O [Tobramycin] | about 1.4 |  |  |  |  |  | inhibition of cell viability (Resazurin assay) ([2]; added at beginning, antibiotic 1/4 MIC, 24 hour grown biofilm): about 25%; inhibition of cell viability (Resazurin assay) ([2]; added at beginning, sub-MIC antibiotic, 48 hour grown biofilm): about 25% |
| CN[C@H](CC(C)C)C(=O)N[C@H]1C(=O)N[C@@H](CC(N)=O)C(=O)N[C@H]2C(=O)N[C@H]3C(=O)N[C@H](C(=O)N[C@H](C(=O)O)c4cc(O)cc(O)c4-c4cc3ccc4O)[C@H](O)c3ccc(c(Cl)c3)Oc3cc2cc(c3O[C@@H]2O[C@H](CO)[C@@H](O)[C@H](O)[C@H]2O[C@H]2C[C@](C)(N)[C@H](O)[C@H](C)O2)Oc2ccc(cc2Cl)[C@H]1O [Vancomycin] |  | 1.8 fold | no effect | no effect | about 20% | 2.0 µg/mL (≈ 1.38 µM) | MIC ([8]; Staphylococcus aureus, ATCC33591): 2 µg/mL (≈ 1.38 µM); MIC ([9]; Staphylococcus aureus, 3BELGIUM): 2 µg/mL (≈ 1.38 µM); effect of addition of Trehalase on MIC [10]: No significant effect |
| Gentamicin |  | two-fold | no effect | no effect | about 10% | 2 µg/mL | MIC [8]: 2.0 µg/mL; MIC [9]: 32.0 µg/mL; MIC value reduction on addition of Trehalase ([10]; clinical isolates): up to 16 fold; MIC value reduction on addition of Trehalase ([10]; reference isolates): ≤ 33 fold |
